Measurements from paper PMC6337619, “Identification of Novel Potential Inhibitors of Pteridine Reductase 1 in Trypanosoma brucei via Computational Structure-Based Approaches and in Vitro Inhibition Assays” (Molecules, 2019).
Where “and” joins values, the source holds several entries; their conditions need not be identical. Equal values may be shown once. Entries after “also recorded” stand apart in the source; their conditions may differ. Read-outs that look alike come from different tables or passages of the source.

Legend:
[1] = In vitro human cytotoxicity assay (resazurin); settings: human, HeLa cells
Experimental: (§2) The compounds assayed for trypanocidal activity were also tested to determine if they caused adverse effects against human cells in vitro. For this assay, HeLa cells were used. The cells were cultured in DMEM supplemented with 10% fetal calf serum and antibiotics (penicillin/streptomycin/amphotericin B) at 37 °C in a 5 % CO2 incubator. Cells were plated at a density of 2 × 10^4 cells/well and after an overnight incubation the compounds were assayed for cytotoxic activity by adding three-fold serial dilutions of each compound (with a 100 µM starting concentration) to the 96-well plates, followed by incubation for 48 h. Cell viability was determined using the resazurin method [74]. Resazurin (0.5 mM in phosphate-buffered saline; 20 µL/well) was added to the cells and, after a 2-h incubation, fluorescence was read in a Spectramax M3 plate reader at excitation and emission wavelengths of 560 nm and 590 nm, respectively. Fluorescence readings were converted to percentage cell viability relative to control wells untreated with compounds. Plots of % cell viability versus log[compound] were used to determine IC50 values by non-linear regression using GraphPad Prism (version 5.02, GraphPad Software Inc., San Diego, USA). Three repeats of the experiment were carried out.

[2] = system: T. b. brucei (strain Lister 427); experiment: Trypanosoma in vitro inhibition assay (resazurin); assay type: cell-based; settings: for anti-trypanosomal activity at single concentration: 20 µM, T. brucei BSF in culture; for IC50: blood stream form, 24 h + 24 h resazurin, mean ± SD of three independent experiments, read-out: IC50 against T. brucei BSF in culture
Experimental: (§1) Compounds RUBi001, RUBi005, and RUBi015 were purchased from MCULE while RUBi002, RUBi004, RUBi007, RUBi008, RUBi010, RUBi011, RUBi012, RUBi014, RUBi016, and RUBi018 were obtained from MolPort (not all the compounds were commercially available). These compounds were assayed for trypanocidal activity by adding 20 μM of each compound to cultures of T. b. brucei (strain Lister 427) in 96-well plates. The parasites were maintained at 37 °C and 5% CO2 in an IMDM medium containing 25 mM HEPES, 10% fetal bovine serum, 1 mM hypoxanthine, 0.05 mM bathocuproine disulfonic acid, 1.5 mM cysteine, 1.25 mM pyruvic acid, 0.09 mM uracil, 0.09 mM cytosine, 0.16 mM thymidine, and 0.014 % 2-mercaptoethanol. Parasites were diluted to 2.4 × 10^4 cells in a volume of 200 µL per well and incubated with the test compounds for 24 h. Parasite percentage viability was determined using the resazurin method. Resazurin (0.5 mM in phosphate-buffered saline; 20 µL/well) was added to each well and incubation continued for a further 24 h, after which fluorescence (Ex560/Em590) was read in a Spectramax M3 microplate reader (Molecular Devices). Trypanocidal activity of the compounds was reported as the percentage of viable parasites in the compound-treated wells when compared to untreated controls (% viability). Pentamidine, an FDA-approved trypanocidal drug, was used as the control drug standard. For compounds that produced <20% viability, IC50 values were subsequently determined. The assays were conducted as described above, except that parasites were incubated with 3-fold serial dilutions of the test compounds and IC50 values derived from % parasite viability vs. log[compound] dose-response plots by non-linear regression analysis using GraphPad Prism (version 5.02, GraphPad Software Inc., San Diego, USA). IC50 evaluations were carried out on three independent occasions and the mean IC50 ± standard deviation is reported in the text. To assess compound interactions, the compounds were assayed for trypanocidal activity when used in combination with WR99210, a known TbDHFR inhibitor [42]. […] For isobologram analysis, the fractional inhibitory concentrations of the RUBi compounds and WR99210 were calculated by dividing the IC50s obtained for the compounds at the various combination ratios with the IC50 obtained for the compounds in the absence of the partner drug, and the FIC values plotted against each other, i.e., RUBi compound FIC versus WR99210 FIC.

[3] = system: T. b. brucei (strain Lister 427); experiment: Isobologram combination assay with WR99210; assay type: cell-based; settings: ratios 75:25, 50:50, 25:75 with TbDHFR inhibitor WR99210
Experimental: as §1

[4] = in vitro; settings: human, HeLa cells
Experimental: as §2

[5] = system: HeLa cells; experiment: In vitro human cytotoxicity assay (resazurin); settings: at 100 µM
Experimental: as §2

[6] = system: T. brucei in culture; set-up: method as in PMID 16729575, PMID 16569852; settings: cited from earlier work

SMILES | anti-trypanosomal activity at single concentration [2] | effect in combination with WR99210 (isobologram, FIC) [3] | IC50 ([2]; Trypanosoma brucei, 48 h) [µM] | other results
CC[C@H]1CN2CCc3cc(OC)c(OC)cc3[C@@H]2C[C@@H]1C[C@H]1NCCc2cc(OC)c(OC)cc21 [Emetine, reference compound] | – | – | – | IC50 at 48 h [1]: 0.013 µM
O=c1cc(-c2cccc(O)c2O)oc2ccc(O)cc12 [RUBi001, 2-(2,3-dihydroxyphenyl)-6-hydroxychromen-4-one] | did not show anti-trypanosomal activity | – | – | –
COc1ccc2oc3cc(OCC(=O)Nc4c(C)cccc4C)cc(O)c3c(=O)c2c1 [RUBi002, N-(2,6-dimethylphenyl)-2-(1-hydroxy-7-methoxy-9-oxo-xanthen-3-yl)oxy-acetamide] | did not show anti-trypanosomal activity | – | – | –
CC1=NN(c2ccc(C)cc2C)C(=O)/C1=C/NNC(=O)c1cccc([N+](=O)[O-])c1 [RUBi004, N'-{[1-(2,4-dimethylphenyl)-3-methyl-5-oxo-1,5-dihydro-4H-pyrazol-4-ylidene]methyl}-3-nitrobenzohydrazide] | – | reduced inhibition; also recorded: moderate to strong antagonism; also recorded: antagonistic effect | 9.6 ± 3.2 | IC50 at 48 h [1]: 23.6 ± 5.8 µM
Cc1ccccc1OCC(=O)NNC(=S)NC(=O)c1ccccc1[N+](=O)[O-] [RUBi005, 2-nitro-N-({2-[(2-methylphenoxy)acetyl]hydrazino}carbothioyl)benzamide] | did not show anti-trypanosomal activity | – | – | –
COc1ccc(NC(=O)CSc2nc3[nH]ncc3c(=O)n2-c2ccccc2)cc1 [RUBi007, N-(4-methoxyphenyl)-2-[(4-oxo-5-phenyl-4,5-dihydro-1H-pyrazolo[3,4-d]pyrimidin-6-yl)sulfanyl]acetamide] | – | reduced inhibition; also recorded: moderate to strong antagonism; also recorded: antagonistic effects | 34.9 ± 17.1 | viability at 48 h, 100 µM [4]: > 90%; human cell cytotoxicity [5]: no significant human (human cervix adenocarcinoma (HeLa)) cell cytotoxicity; effect in combination with WR99210 (isobologram, FIC) ([3]; listed as RUB007): antagonistic effect
COc1cc(CNc2nc[nH]n2)ccc1OCc1cccc(C)c1 [RUBi008, [3-Methoxy-4-(3-methyl-benzyloxy)-benzyl]-(1H-[1,2,4]triazol-3-yl)-amine] | did not show anti-trypanosomal activity | – | – | –
Nc1ccc2nc(SCC(=O)N3CCCC3)sc2c1 [RUBi010, 2-{[2-oxo-2-(1-pyrrolidinyl)ethyl]sulfanyl}-1,3-benzothiazol-6-ylamine] | did not show anti-trypanosomal activity | – | – | –
Cc1ccc(NC(=O)Cn2c(-c3nonc3N)nc3ccccc32)cc1F [RUBi011, 2-[2-(4-amino-1,2,5-oxadiazol-3-yl)-1H-benzimidazol-1-yl]-N-(3-fluoro-4-methylphenyl)acetamide] | did not show anti-trypanosomal activity | – | – | –
NS(=O)(=O)c1ccc(NC(=O)NC2CCCCC2)cc1 [RUBi012, 1-cyclohexyl-3-(4-sulfamoylphenyl)urea] | did not show anti-trypanosomal activity | – | – | –
O=C1CC(c2ccc(O)c(O)c2)Oc2cc(O)cc(O)c21 (stereo not drawn) [RUBi014, 2-(3,4-dihydroxyphenyl)-5,7-dihydroxy-3,4-dihydro-2H-1-benzopyran-4-one] | – | reduced inhibition; also recorded: moderate to strong antagonism; also recorded: antagonistic effect | 14.6 ± 9.9 | anti-protozoal activity [6]: selectively anti-protozoal with activity against T. brucei in culture; IC50 at 48 h [1]: 32.9 ± 2.2 µM
Cn1c(=O)c2ncn(CC(=O)Nc3ccc(O)cc3)c2n(C)c1=O [RUBi016, 2-(1,3-dimethyl-2,6-dioxo-1,2,3,6-tetrahydro-9H-purin-9-yl)-N-(4-hydroxyphenyl)acetamide] | – | additive effect | 25.4 ± 4.7 | viability at 48 h, 100 µM [4]: > 90%; human cell cytotoxicity [5]: no significant human (human cervix adenocarcinoma (HeLa)) cell cytotoxicity
O=C(CC1S/C(=N\N=C2CCCC2)N=C1O)Nc1ccccc1 (stereo not drawn) [RUBi018, 2-[2-(cyclopentylidenehydrazono)-4-hydroxy-2,5-dihydro-1,3-thiazol-5-yl]-N-phenylacetamide] | – | reduced inhibition; also recorded: moderate to strong antagonism; also recorded: antagonistic effect | 12.7 ± 3.7 | viability at 48 h, 100 µM [4]: > 90%; human cell cytotoxicity [5]: no significant human (human cervix adenocarcinoma (HeLa)) cell cytotoxicity
CC1(C)N=C(N)N=C(N)N1OCCCOc1cc(Cl)c(Cl)cc1Cl [WR99210, reference compound] | – | – | – | IC50 [2]: 0.5 µM and 0.55 µM
N=C(N)c1ccc(OCCCCCOc2ccc(C(=N)N)cc2)cc1 [pentamidine, reference compound] | – | – | 0.014 | –
